The target in experiment [1] is GDNF (Homo sapiens, UniProt P39905). Here is the method:
(§1) SPR measurements were performed using a Biacore T100 system (GE Healthcare). The CM5 sensor chip was primed with HBS-EP+ buffer (10 mM HEPES pH 7.4, 150 mM NaCl, 3.4 mM EDTA, 0.005% P20, GE Healthcare) and was activated using the standard amine-coupling protocol (1:1 mixture of 0.4 M EDC and 0.1M NHS). 0.008 mg/ml of streptavidin solution in 10 mM sodium acetate buffer (Acetate 5.0, GE Healthcare) was conjugated and remaining activated groups were quenched with 1 M ethanolamine solution (pH 8.5). The final amount of streptavidin covalently immobilized on the surface was typically 700 RU. Flow cell 1 (or 3) was used as a reference to subtract nonspecific binding, drift, and the bulk refractive index, while flow cell 2 (or 4) was further immobilized with GAG mimetic agents or natural polysaccharides. […] Immobilized amount is normalized by a molecular weight. For a given affinity measurement, varying amount of protein solutions were successively injected into the flow cells for 240 seconds of contact time and 800 seconds of dissociation time using a flow rate of 50 μL/min at 25° C. Flow cell was regenerated using 2.5 M MgCl2 at 30 μL/min. Association (ka) and dissociation (kd) rate constants were calculated with a 1:1 binding model using Biacore evaluation software, and KD values were calculated from the ratio of kd to ka. Kinetic parameters were obtained by fitting curves to a 1:1 Langmuir model with baseline correction.
(§2) With the non-saccharide glycosaminoglycan mimetics in hand, SPR was employed to facilitate quantitative, real-time kinetic analysis of non-saccharide glycosaminoglycan mimetic binding to GDNF and GFRα1.

The target in experiment [2] is GFRα1 (Homo sapiens, UniProt P56159). As for the experimental part:
as §1, §2

Experiment [3] concerns the target T1, P-selectin (Homo sapiens, UniProt P16109).
T1 sequence (P16109 42-830): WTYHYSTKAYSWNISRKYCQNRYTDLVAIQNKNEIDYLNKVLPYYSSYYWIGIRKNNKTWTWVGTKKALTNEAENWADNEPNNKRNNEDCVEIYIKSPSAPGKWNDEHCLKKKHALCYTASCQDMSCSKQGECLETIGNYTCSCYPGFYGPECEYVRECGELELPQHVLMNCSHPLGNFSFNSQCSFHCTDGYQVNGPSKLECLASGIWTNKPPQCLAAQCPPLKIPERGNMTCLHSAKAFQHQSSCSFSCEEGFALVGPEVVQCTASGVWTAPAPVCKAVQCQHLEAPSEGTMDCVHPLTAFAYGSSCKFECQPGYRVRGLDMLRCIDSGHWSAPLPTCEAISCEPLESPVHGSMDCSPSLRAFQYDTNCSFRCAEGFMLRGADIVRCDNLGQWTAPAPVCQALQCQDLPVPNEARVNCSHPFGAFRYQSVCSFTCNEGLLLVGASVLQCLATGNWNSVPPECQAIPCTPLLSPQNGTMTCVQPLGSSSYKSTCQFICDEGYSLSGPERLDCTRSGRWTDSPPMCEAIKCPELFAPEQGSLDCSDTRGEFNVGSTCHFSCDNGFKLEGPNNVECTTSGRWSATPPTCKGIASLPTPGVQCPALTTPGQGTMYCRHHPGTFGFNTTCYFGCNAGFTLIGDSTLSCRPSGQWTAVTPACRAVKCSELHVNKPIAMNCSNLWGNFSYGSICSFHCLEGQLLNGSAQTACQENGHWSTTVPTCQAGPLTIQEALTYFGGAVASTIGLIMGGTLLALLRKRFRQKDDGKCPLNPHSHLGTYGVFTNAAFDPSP
The experiment in a line: SPR binding to P-selectin. Conditions: distributed vs single facial conformation. As for the experimental part:
as §1, with “Kinetic parameters were obtained by fitting curves to a 1:1 Langmuir model with baseline correction.” left out
(Surface plasmon resonance follows binding to a sensor surface in real time, without labels.)

Experiment [4] deals with Factor Xa. The experiment in a line: BIOPHEN Heparin Anti-Xa assay in the presence of anti-thrombin. Format: biochemical. Conditions: at concentrations as high as 300 ug/ml, anti-thrombin present. An excerpt:
(§3) One common drawback hampering the clinical application of negatively charged glycomimetics is the potentially hazardous tendency to activate anti-thrombin, which in turn severely impairs the ability of blood coagulation factors (e.g. Factor Xa and IIa) in the final common pathway to orchestrate blood coagulation. To verify the safety and clinical potential of the engineered non-saccharide glycomimetics of tunable spatial conformation, the effect of (PE)12-NS and heparin on the activity of blood coagulation factors, Factor Xa and IIa in the presence of anti-thrombin, was assessed. This assessment was performed using BIOPHEN Heparin Anti-Xa and Anti-IIa assays (Aniara) where the inhibitory effect of anti-thrombin on Factor Xa and IIa was determined by the ability of the factors to catalyze the hydrolysis of factor-specific chromogenic substrates. […] The use of spatial conformation to present key chemical motifs toward selectins is therefore specific and independent of other proteins that could lead to undesirable consequences if concomitant enhanced binding were to be seen.

Experiment [5] relates to Factor IIa. The experiment in a line: BIOPHEN Heparin Anti-IIa assay in the presence of anti-thrombin. Format: biochemical. Conditions: at concentrations as high as 300 ug/ml, anti-thrombin present.
Excerpt: as §3

Experiment [6] relates to B16F10 murine melanoma cells bound to P-selectin-coated surfaces. As to the kind of experiment: Adhesion of calcein-labeled tumor cells to immobilized P-selectin. Format: cell-based. The conditions noted are these: B16F10 cells on P-selectin-coated surfaces.
Excerpt: As such, it was examined if the strong binding affinity of (PE)12-NS toward P-selectin could translate into inhibition of P-selectin-mediated adhesion of tumor cells. To do so, recombinant P-selectin chimera protein with a Fc region was immobilized on Protein A-coated surfaces. The adhesion of calcein-labeled B16F10 murine melanoma cells to these surfaces in the presence of heparin or (PE)12-NS was then visualized (FIG. 16A) and quantified by fluorescence microplate reader (FIG. 16B).
Experiment [7] deals with PC12 cells. The experiment in a line: Neurite outgrowth assay (GDNF-mediated neuritogenesis). Conditions: 72 h; for effect on neuritogenesis: added to culture media, 20 μM, untreated cells.
Procedure: PC12 cells were maintained in T75 tissue culture flasks in RPMI 1640 medium (ATCC® 30-2001) supplemented with 10% heat-inactivated horse serum (HI-HS, Gibco 26050-088), 5% fetal bovine serum (FBS, Gibco 26170-043) and 1% penicillin/streptomycin (Gibco 15140-122). Stock cultures from liquid nitrogen were grown at 37° C. with 5% CO2 in a humidified chamber for a minimum of 72 hr before experiments. Cells were seeded on 13 mm round glass coverslips (Paul Marienfeld 0111530). The coverslips were pretreated with 65% nitric acid for three days, washed with distilled water, 70% ethanol and 100% ethanol thrice each for 30 minutes with gentle rocking and then dried in a cell culture hood overnight under UV. For cell attachment, the treated coverslips were coated with laminin (25 μg/mL in PBS; Sigma L2020) at 37° C. for 1 hr, washed thrice with PBS, and then placed at the bottom of a 24-well plate for cell seeding. For all experiments, cells were cultured in RPMI 1640 differentiation media containing 1% HI-HS.
PC12 cells were first harvested and incubated in differentiation media or differentiation media supplemented with 30 μM of DPPE-(PE)12-NS for 2 h. After incubation, the cells were centrifuged and rinsed twice with fresh differentiation medium and then seeded onto laminin-coated coverslips at a density of 100 cells/mm^2. After allowing the cells to attach for 1 hr at 37° C., the medium was replaced with fresh differentiation medium supplemented with 200 ng/mL GDNF and 1 μg/mL GFRα1. As additional controls, (PE)12-NS or NS were further added to the supplemented medium to a final concentration of 20 μM for untreated cells. After 72 h, the cells were fixed with 4% paraformaldehyde solution (Tokyo Chemical Industry 30525-89-4 in PBS) for 15 minutes at room temperature and then rinsed with PBS. Bright-field images were taken using an Olympus IX71 Inverted Microscope at 20× magnification under phase contrast. For each condition, 400-500 randomly selected single cells were counted. The percentage of neurite-bearing cells was determined by counting the number of cells with neurites longer than the cell body. Experiments were repeated three times and done in duplicate each time.
Experiment [8] has as its target recombinant P-selectin chimera protein with a Fc region. The experiment in a line: cell-based or functional assay.
Experiment [9] has as its target T2, P-selectin.
T2 chain: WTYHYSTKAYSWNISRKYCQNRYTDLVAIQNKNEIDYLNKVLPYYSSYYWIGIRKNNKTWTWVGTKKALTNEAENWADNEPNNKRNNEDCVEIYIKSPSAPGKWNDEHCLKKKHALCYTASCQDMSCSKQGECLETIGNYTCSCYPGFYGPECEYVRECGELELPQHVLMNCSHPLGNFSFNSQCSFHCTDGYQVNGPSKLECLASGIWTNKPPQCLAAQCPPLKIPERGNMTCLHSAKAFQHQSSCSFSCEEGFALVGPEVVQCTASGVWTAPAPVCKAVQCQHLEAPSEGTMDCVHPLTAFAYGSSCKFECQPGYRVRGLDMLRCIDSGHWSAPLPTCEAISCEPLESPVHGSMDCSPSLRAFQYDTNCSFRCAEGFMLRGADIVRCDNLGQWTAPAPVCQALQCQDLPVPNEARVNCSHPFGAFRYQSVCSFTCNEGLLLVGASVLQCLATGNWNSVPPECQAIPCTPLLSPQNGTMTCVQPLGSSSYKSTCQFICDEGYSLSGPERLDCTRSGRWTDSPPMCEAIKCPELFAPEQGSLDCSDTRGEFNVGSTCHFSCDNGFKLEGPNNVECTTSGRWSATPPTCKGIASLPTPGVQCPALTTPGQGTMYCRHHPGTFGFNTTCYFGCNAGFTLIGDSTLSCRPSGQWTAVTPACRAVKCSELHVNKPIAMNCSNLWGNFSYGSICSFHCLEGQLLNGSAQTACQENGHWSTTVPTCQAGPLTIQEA
The experiment in a line: SPR (Biacore T100), biotinylated mimetic on streptavidin chip, selectin injected.

Experiment [10] addresses GFRα1. The experiment in a line: SPR (Biacore T100), biotinylated mimetic on streptavidin CM5 chip, protein injected, 1:1 model.
Experiment [11] concerns the target T3, GDNF.
T3 chain: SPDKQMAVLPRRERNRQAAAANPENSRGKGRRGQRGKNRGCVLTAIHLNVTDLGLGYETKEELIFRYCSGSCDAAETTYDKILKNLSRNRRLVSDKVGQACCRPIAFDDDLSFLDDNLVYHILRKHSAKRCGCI
The description is as above.

The mark [12] stands for this setting: GDNF, SPR, 1:1 binding model, 25° C.
[13] abbreviates: SPR sensorgrams, 0.2-1.0 nM protein.
Where [14] appears, read: GFRα1, SPR, 1:1 binding model, 25° C.

Entries after “also recorded” stand apart in the source; their conditions may differ. Square brackets hold non-standard residues; d marks the D form. Primed or numbered codes have the meaning given here. Ends that are not written are not given here. * marks the point of attachment. PE = 4-azidoproline (Pz) joined by click reaction (1,2,3-triazole) to NS; Biotin = O=C1N[C@H]2[C@H](CS[C@H]2CCCCC(=O)*)N1; PEG12′ = not defined here

GFRα1 (Homo sapiens, UniProt P56159), sequence (P56159 25-429, species assumed): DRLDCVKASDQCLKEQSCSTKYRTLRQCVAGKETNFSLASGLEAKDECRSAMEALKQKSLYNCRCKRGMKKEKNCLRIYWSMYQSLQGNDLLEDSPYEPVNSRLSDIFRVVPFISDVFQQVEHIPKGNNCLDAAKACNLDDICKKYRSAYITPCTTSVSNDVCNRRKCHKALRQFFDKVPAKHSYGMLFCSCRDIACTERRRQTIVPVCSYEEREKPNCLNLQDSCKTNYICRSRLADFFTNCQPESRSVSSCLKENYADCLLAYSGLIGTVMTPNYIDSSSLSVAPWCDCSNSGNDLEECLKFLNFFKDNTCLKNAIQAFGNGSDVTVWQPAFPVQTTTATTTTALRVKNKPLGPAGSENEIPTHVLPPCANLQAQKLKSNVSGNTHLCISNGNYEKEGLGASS
GDNF (Homo sapiens, UniProt P39905), sequence (P39905 76-211, species assumed): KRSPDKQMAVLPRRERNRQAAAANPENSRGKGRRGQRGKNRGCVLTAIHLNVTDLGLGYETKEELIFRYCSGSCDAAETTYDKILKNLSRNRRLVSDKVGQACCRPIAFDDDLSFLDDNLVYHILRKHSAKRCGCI

For the molecule `COC(=O)[C@@H]1C[C@@H](n2cc(CC(COS(=O)(=O)O)OS(=O)(=O)O)nn2)CN1C(=O)[C@@H]1C[C@@H](n2cc(CC(COS(=O)(=O)O)OS(=O)(=O)O)nn2)CN1C(=O)[C@@H]1C[C@@H](n2cc(CC(COS(=O)(=O)O)OS(=O)(=O)O)nn2)CN1C(=O)[C@@H]1C[C@@H](n2cc(CC(COS(=O)(=O)O)OS(=O)(=O)O)nn2)CN1C(=O)[C@@H]1C[C@@H](n2cc(CC(COS(=O)(=O)O)OS(=O)(=O)O)nn2)CN1C(=O)[C@@H]1C[C@@H](n2cc(CC(COS(=O)(=O)O)OS(=O)(=O)O)nn2)CN1C(=O)[C@@H]1C[C@@H](n2cc(CC(COS(=O)(=O)O)OS(=O)(=O)O)nn2)CN1C(=O)[C@@H]1C[C@@H](n2cc(CC(COS(=O)(=O)O)OS(=O)(=O)O)nn2)CN1C(=O)[C@@H]1C[C@@H](n2cc(CC(COS(=O)(=O)O)OS(=O)(=O)O)nn2)CN1C(=O)[C@@H]1C[C@@H](n2cc(CC(COS(=O)(=O)O)OS(=O)(=O)O)nn2)CN1C(=O)[C@@H]1C[C@@H](n2cc(CC(COS(=O)(=O)O)OS(=O)(=O)O)nn2)CN1C(=O)[C@@H]1C[C@@H](n2cc(CC(COS(=O)(=O)O)OS(=O)(=O)O)nn2)CN1C(=O)CCOCCOCCOCCOCCOCCOCCOCCOCCOCCOCCOCCOCCNC(=O)CCCC[C@@H]1SC[C@@H]2NC(=O)N[C@@H]21` (stereo partly drawn) [(PE)12-NS], the values for the kd in experiment [1] (setting [12]) and in experiment [2] (setting [14]) were 2.12 (± 0.07) × 10^−3 S^−1 and 4.9 (± 1.7) × 10^−2 S^−1, respectively. Further, the kα is recorded as 6.42 (± 0.28) × 10^5 M^−1S^−1 in experiment [1] (setting [12]) and 4.26 (± 0.90) × 10^5 M^−1S^−1 in experiment [2] (setting [14]). In addition, the “binding affinity to GDNF (comparison in words)” value in [1] (setting [13]) is reported as “far higher binding affinity”. Further, the “binding affinity to GFRα1 (comparison in words)” value in experiment [2] (setting [13]) is given as “far higher binding affinity”. Also, the “binding affinity to P-selectin (comparison in words)” value in experiment [3] is recorded as “stronger binding affinity”. The “activity of Factor Xa” value in experiment [4] is recorded as “remained unaffected”. Further, the “activity of Factor IIa” value in [5] is on record as “remained unaffected”. In experiment [6], the “concentration from which near-complete inhibition of adhesion is achieved” value is at least 0.6 µg/mL. Also, the “effect on neuritogenesis” value is reported as “Complete inhibition” in experiment [7] (GDNF and GFRα1); “completely inhibited neuritogenesis” in [7] (GDNF and GFRα1, listed as biotin-(PE)12-NS).

On to DPPE-(PE)12-NS (PPPPPPPPPPPP), for which, in experiment [7] (cells pre-incubated with 30 μM for 2 h, 200 ng/mL GDNF and 1 μg/mL GFRα1, control 16%), the “percentage of neurite-bearing cells” value amounted to 45%. Also, the “neurite length” value in experiment [7] (cells pre-incubated with 30 μM for 2 h, GDNF and GFRα1) was “marked increase”.

On to pent-4-yne-1,2-diyl bis(sulfate) [NS], for which, in experiment [7] (GDNF and GFRα1), the “effect on neuritogenesis” value is “No significant effect; also recorded: no discernable effect”.

B1: Biotin-(PE)12-NS (peptide)
peptide: {Biotin-PEG12′}-[PE][PE][PE][PE][PE][PE][PE][PE][PE][PE][PE][PE]
modifications: also: CO2CH3 methyl ester seen in NMR
notes: Non-saccharide glycosaminoglycan mimetic on a polyproline type II helix, with NS on all three faces; The biotinylated form was immobilised on streptavidin for SPR; also called distributed design; distributed conformation
In general, Kd refers to the constant that tells how readily two partners part at equilibrium. Low values mean higher affinity, high ones lower affinity. One may read the koff as the rate constant with which the complex falls apart. In general, kon refers to a measure of how fast the partners come together. Low values mean slower complex formation, high ones faster complex formation. Turning to B1, in [8], the IC50 of inhibition of adhesion of calcein-labeled B16F10 murine melanoma cells to immobilized P-selectin is 0.18 µg/mL and the near-complete inhibition of adhesion of B16F10 cells to immobilized P-selectin was above 0.6 µg/mL. The affinity in [9], expressed as Kd, was 6 nM. In experiment [10], this molecule returned a Kd of 116 nM, a koff of 0.049 s⁻¹ and an on-rate (kon) of 426000 M⁻¹ s⁻¹. Also, in [11], binding was put at a Kd of 3.3 nM, the koff was 0.00212 s⁻¹ and the kon is 642000 M⁻¹ s⁻¹.

Values taken from patent publication US20200291079A1, “ENGINEERING STRUCTURALLY DEFINED NON-SACCHARIDE GLYCOSAMINOGLYCAN MIMETICS VIA A POLYPROLINE SCAFFOLD” (AGENCY FOR SCIENCE, TECHNOLOGY AND RESEARCH, priority 2015, published 2020).
